Data as given in patent US12692269B2, “Therapeutic compounds” (Genentech, Inc., priority 2019, dated 2026).
pEC50: −log10 of the molar value.

Columns and labels:
Format in all cases: binding
[1] = target: TEAD2 YAP50-100 (Homo sapiens, UniProt Q15562); test: TEAD2-YAP HTRF (TR-FRET) protein-protein interaction assay; conditions: TEAD2, YAP peptide 50-100, HTRF; for pEC50: read-out: TEAD2 YAP50-100 HTRF combined: EC50
Description: (§1) Purified His-tagged TEAD protein (YAP Binding Domain, amino acids 217-447) is pre-incubated with Europium labelled anti-His antibody tracer (Perkin Elmer Cat #AD0110). Small molecule Inhibitors are then incubated with the TEAD-Eu protein complex for 30 minutes to allow for binding to TEAD protein. Biotinylated YAP peptide for TEAD-YAP assays (AA's 50-100) or biotinylated TAZ peptide for TEAD-TAZ assays (AA's 13-57) that has been pre-incubated with streptavidin-xl665 acceptor (CIS-Bio Cat #610SAXAC) or is added to the compound-TEAD mix. The TEAD-YAP-inhibitor mixture is then incubated for 60 minutes at room temperature. All reactions are carried out in a polystyrene plate. After 60 minutes, the plate is read on a plate reader using TR-FRET mode with wavelengths of 665 nm/615 nm. If YAP or TAZ binds to TEAD as expected, a TR-FRET signal results from the proximity of YAP or TAZ and TEAD after binding. If an inhibitor such as peptide 17 (Selleckchem Cat #58164) interferes with YAP-TEAD or TAZ-TEAD binding, the disruption of the YAP or TAZ:TEAD interaction results in a decrease in TR-FRET signal. The potency of compounds as YAP:TEAD or TAZ:TEAD protein-protein interaction (PPi) inhibitors is determined by an IC50 or EC50 value generated using a non-linear four parameter curve fit.

[2] = target: TEAD3 YAP50-100 (Homo sapiens, UniProt Q99594); test: TEAD3-YAP HTRF (TR-FRET) protein-protein interaction assay; conditions: TEAD3, YAP peptide 50-100, HTRF; for pEC50: read-out: TEAD3 YAP50-100 HTRF combined: EC50
TEAD3 YAP50-100, sequence (Q99594 173-435 limits assumed): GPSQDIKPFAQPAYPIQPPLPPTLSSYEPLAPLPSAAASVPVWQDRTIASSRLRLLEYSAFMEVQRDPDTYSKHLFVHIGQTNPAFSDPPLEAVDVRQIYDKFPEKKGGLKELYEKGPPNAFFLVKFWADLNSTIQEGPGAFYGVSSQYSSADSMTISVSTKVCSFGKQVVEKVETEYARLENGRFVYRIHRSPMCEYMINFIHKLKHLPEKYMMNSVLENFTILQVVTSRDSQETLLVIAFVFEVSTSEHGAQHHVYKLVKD
Description: as §1

[3] = target: TEAD1 YAP50-100 (Homo sapiens, UniProt P28347); test: TEAD1-YAP HTRF (TR-FRET) protein-protein interaction assay; conditions: TEAD1, YAP peptide 50-100, HTRF; for pEC50: read-out: TEAD1 YAP50-100 HTRF combined: EC50
TEAD1 YAP50-100, sequence (P28347 167-426 limits assumed): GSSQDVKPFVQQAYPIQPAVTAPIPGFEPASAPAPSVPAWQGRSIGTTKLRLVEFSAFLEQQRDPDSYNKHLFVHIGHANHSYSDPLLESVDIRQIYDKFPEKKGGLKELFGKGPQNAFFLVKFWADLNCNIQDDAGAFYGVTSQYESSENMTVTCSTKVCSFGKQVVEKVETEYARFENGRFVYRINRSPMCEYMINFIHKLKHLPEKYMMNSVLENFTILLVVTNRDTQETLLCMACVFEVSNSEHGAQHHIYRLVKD
Description: as §1

[4] = target: TEAD3 TAZ (amino acids 13-57) (Homo sapiens, UniProt Q99594); test: TEAD3-TAZ HTRF (TR-FRET) protein-protein interaction assay; conditions: for TEAD3 TAZ HTRF combined: Max % Inhibition: TEAD3, TAZ peptide; for pEC50: TEAD3-TAZ HTRF, TR-FRET 665 nm/615 nm, read-out: TEAD3 TAZ HTRF combined: EC50
TEAD3 TAZ (amino acids 13-57), sequence (Q99594 173-435 limits assumed): as the sequence (Q99594 173-435 limits assumed) above
Description: as §1

[5] = target: TEAD1 TAZ (amino acids 13-57) (Homo sapiens, UniProt P28347); test: TEAD1-TAZ HTRF (TR-FRET) protein-protein interaction assay; conditions: for TEAD1 TAZ HTRF combined: Max % Inhibition: TEAD1, TAZ peptide; for pEC50: TEAD1-TAZ HTRF, TR-FRET 665 nm/615 nm, read-out: TEAD1 TAZ HTRF combined: EC50
TEAD1 TAZ (amino acids 13-57), sequence (P28347 167-426 limits assumed): as the sequence (P28347 167-426 limits assumed) above
Description: as §1

[6] = target: TEAD4 YAP50-100 (Homo sapiens, UniProt Q15561); test: TEAD4-YAP HTRF (TR-FRET) protein-protein interaction assay; conditions: TEAD4, YAP peptide 50-100, HTRF; for pEC50: read-out: TEAD4 YAP50-100 HTRF combined: EC50
TEAD4 YAP50-100, sequence (Q15561 217-434 limits assumed): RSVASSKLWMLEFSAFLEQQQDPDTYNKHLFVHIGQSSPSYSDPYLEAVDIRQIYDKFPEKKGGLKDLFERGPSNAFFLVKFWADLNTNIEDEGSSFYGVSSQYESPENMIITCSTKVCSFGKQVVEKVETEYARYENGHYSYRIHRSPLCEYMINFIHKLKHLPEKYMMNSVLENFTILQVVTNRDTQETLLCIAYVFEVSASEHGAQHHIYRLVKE
Description: as §1

[7] = target: TEAD4 TAZ (amino acids 13-57) (Homo sapiens, UniProt Q15561); test: TEAD4-TAZ HTRF (TR-FRET) protein-protein interaction assay; conditions: for TEAD4 TAZ HTRF combined: Max % Inhibition: TEAD4, TAZ peptide; for pEC50: TEAD4-TAZ HTRF, TR-FRET 665 nm/615 nm, read-out: TEAD4 TAZ HTRF combined: EC50
TEAD4 TAZ (amino acids 13-57), sequence (Q15561 217-434 limits assumed): as above
Description: as §1

[8] = target: TEAD2 TAZ (amino acids 13-57) (Homo sapiens, UniProt Q15562); test: TEAD2-TAZ HTRF (TR-FRET) protein-protein interaction assay; conditions: for TEAD2 TAZ HTRF combined: Max % Inhibition: TEAD2, TAZ peptide; for pEC50: TEAD2-TAZ HTRF, TR-FRET 665 nm/615 nm, read-out: TEAD2 TAZ HTRF combined: EC50
TEAD2 TAZ (amino acids 13-57), sequence (Q15562 217-447): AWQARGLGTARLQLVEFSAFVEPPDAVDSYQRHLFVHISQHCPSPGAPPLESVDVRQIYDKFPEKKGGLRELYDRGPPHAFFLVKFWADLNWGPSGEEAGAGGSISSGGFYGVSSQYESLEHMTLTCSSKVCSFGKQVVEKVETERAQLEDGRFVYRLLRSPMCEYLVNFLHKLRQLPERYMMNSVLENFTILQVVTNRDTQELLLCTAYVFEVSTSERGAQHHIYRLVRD
Description: as §1

TEAD2 YAP50-100, sequence (Q15562 217-447): as above

Row | Compound | TEAD2 YAP50-100 HTRF combined: Max % Inhibition [1] | pEC50 [1] | TEAD3 YAP50-100 HTRF combined: Max % Inhibition [2] | pEC50 [2] | TEAD1 YAP50-100 HTRF combined: Max % Inhibition [3] | pEC50 [3] | TEAD3 TAZ HTRF combined: Max % Inhibition [4] | pEC50 [4] | TEAD1 TAZ HTRF combined: Max % Inhibition [5] | pEC50 [5] | TEAD4 YAP50-100 HTRF combined: Max % Inhibition [6] | pEC50 [6] | TEAD4 TAZ HTRF combined: Max % Inhibition [7] | pEC50 [7] | TEAD2 TAZ HTRF combined: Max % Inhibition [8] | pEC50 [8]
1 | Cc1nccnc1-c1nn2c(=O)cc(-c3ccc(CC4CCCC4)cc3)[nH]c2c1C(=O)N1C[C@@H](CF)[C@H]1C (single isomer, unassigned) [Isomer A, Example 42] | 45.0% | 7.70 | 69.5% | 6.49 | 64.0% | 7.10 | 66.0% | 6.47 | 49.0% | 7.10 | 48.5% | 5.31 | 20.0% | 5.96 | 57.0% | 7.70
2 | C[C@H]1[C@@H](CF)CN1C(=O)c1c(-c2ncccn2)nn2c(=O)cc(-c3ccc(CC4CCCC4)cc3)[nH]c12 (single isomer, unassigned) [Isomer A, Example 43] | 71.0% | 8.00 | 58.5% | 7.22 | 64.0% | 7.52 | 52.0% | 7.22 | 54.5% | 7.52 | 52.0% | 8.00 | 52.0% | 8.00 | 63.0% | 8.00
3 | C[C@H]1[C@@H](CF)CN1C(=O)c1c(-c2cnccn2)nn2c(=O)cc(-c3ccc(CC4CCCC4)cc3)[nH]c12 (single isomer, unassigned) [Isomer A, Example 44, Cis-5-(4-(cyclopentylmethyl)phenyl)-3-(3-(fluoromethyl)-2-methylazetidine-1-carbonyl)-2-(pyrazin-2-yl)pyrazolo[1,5-a]pyrimidin-7(4H)-one] | 52.0% | 7.40 | 65.5% | 5.98 | 64.0% | 7.22 | 64.0% | 5.92 | 52.0% | 7.15 | 40.0% | 5.03 | 42.0% | 5.02 | 56.5% | 7.40
4 | C[C@@H]1[C@H](CF)CN1C(=O)c1c(-c2cnccn2)nn2c(=O)cc(-c3ccc(C4CCCCC4)cc3)[nH]c12 (single isomer, unassigned) [Isomer B, Example 39] | 17.5% | 6.77 | 67.0% | 5.61 | 62.0% | 6.77 | 68.0% | 5.60 | 55.0% | 6.77 | 46.0% | 5.19 | 49.5% | 5.21 | 37.0% | 6.72
5 | C[C@H]1[C@@H](CF)CN1C(=O)c1c(-c2ncccn2)nn2c(=O)cc(-c3ccc(C4CCCCC4)cc3)[nH]c12 (single isomer, unassigned) [Isomer B, Example 40] | 68.0% | 7.10 | 68.0% | 6.36 | 76.0% | 6.89 | 70.0% | 6.28 | 70.0% | 6.85 | 49.5% | 5.70 | 51.0% | 5.68 | 78.5% | 6.92
6 | Cc1nccnc1-c1nn2c(=O)cc(-c3ccc(C4CCCCC4)cc3)[nH]c2c1C(=O)N1C[C@H](CF)[C@@H]1C (single isomer, unassigned) [Isomer B, Example 41] | 77.8% | 7.70 | 80.2% | 6.92 | 80.0% | 7.10 | 73.8% | 6.85 | 71.0% | 7.15 | 57.2% | 7.52 | 57.0% | 7.52 | 74.4% | 7.70
7 | Cc1nccnc1-c1nn2c(=O)cc(-c3ccc(CC4CCCC4)cc3)[nH]c2c1C(=O)N1C[C@H](CF)[C@@H]1C (single isomer, unassigned) [Isomer B, Example 42] | 68.0% | 8.00 | 68.0% | 7.10 | 68.0% | 7.40 | 60.0% | 7.05 | 59.0% | 7.22 | 52.5% | 7.70 | 48.5% | 7.70 | 62.0% | 8.00
